This note sets out measurements from patent publication EP0942066A2, “Cell line of blood-brain barrier” (KYOWA HAKKO KOGYO CO., LTD., priority 1998, dated 1999).

The test system of series [1] is L-glutamic acid transporter. The series is described as follows: Incorporation of [^3H]L-glutamic acid into astrocyte cell lines TR-AST (glutamic acid transport ability). The class given is cell-based, rat. Particulars: for incorporation of [^3H]L-Glu, expressed in % relative to the control: 1 mM of the inhibitor, control = 100±5; for inhibition of incorporation of [^3H]L-Glu (in words): other substrates of the transporter. The method, then: The glutamic acid transport ability of the cell lines obtained in Example 4, that is, TR-AST32, TR-AST811, TR-AST912, TR-AST932, TR-AST943 was examined by incorporation of [^3H]L-glutamic acid ([^3H]L-Glu). Each TR-AST's was plated onto a 24-well cell culture plate at a density of 2×10^5 cells/well and cultured in a CO2 incubator at 33°C to make the cells confluent. The incorporation of [^3H]L-Glu was measured in the following manner. First, the medium was suctioned, and the cells were washed with an uptake buffer at 37°C, and 0.2 mℓ uptake buffer containing 46.3 kBq/well [^3H]L-Glu and 9.25 kBq/mℓ [^14C]inulin at 37°C was added, and the tracer solution was removed after 2, 5, 10 or 30 minutes, and the cells were washed 3 times with 1 mℓ uptake buffer at 4°C. To the cells, 0.75 mℓ of 1% Triton X-100 was added, and the cells were allowed to stand overnight so that they were lyzed and then the lysate was measured for radioactivity in a liquid scintillation counter.
The Km and Vmax for incorporation of […] were analyzed using a non-linear minimum square program [Yamaoka, K. et al., J. Pharmacobio-Dyn, 4, 879-885 (1981)] using a plot formula (V = Vmax × [S]/(Km + [S]); Vmax is a maximum rate constant, Km is a Michaelis constant, and [S] is a substrate concentration) for the rate of incorporation of L-Glu. […]

The target of series [2] is T1, GLUT1 (Mus musculus, UniProt P17809).
T1 construct: A band indicating the expression of GLUT-1 was confirmed in any of TM-BBB1, TM-BBB2, TM-BBB3, TM-BBB4 and TM-BBB5; endogenous in cells; host or cells: TM-BBB1 to TM-BBB5, conditionally immortalised mouse brain capillary endothelial cell lines (SV40tsA58 large T transgenic mice)
T1 sequence (P17809 1-492): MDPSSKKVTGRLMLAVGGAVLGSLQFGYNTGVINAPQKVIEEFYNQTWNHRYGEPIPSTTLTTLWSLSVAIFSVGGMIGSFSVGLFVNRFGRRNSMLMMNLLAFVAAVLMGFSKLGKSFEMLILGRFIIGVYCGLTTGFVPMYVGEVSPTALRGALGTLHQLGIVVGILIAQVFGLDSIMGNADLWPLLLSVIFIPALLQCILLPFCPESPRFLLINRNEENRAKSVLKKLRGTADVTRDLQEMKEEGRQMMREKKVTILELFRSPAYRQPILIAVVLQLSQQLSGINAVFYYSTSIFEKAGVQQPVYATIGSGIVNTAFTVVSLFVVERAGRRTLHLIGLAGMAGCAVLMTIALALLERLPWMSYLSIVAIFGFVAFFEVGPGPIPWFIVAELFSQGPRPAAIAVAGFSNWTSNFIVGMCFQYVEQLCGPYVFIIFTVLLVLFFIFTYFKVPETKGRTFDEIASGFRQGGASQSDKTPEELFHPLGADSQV
The series is described as follows: Incorporation of 3-O-methyl-D-glucose (3-OMG) into brain capillary endothelial cell lines TM-BBB (glucose transfer ability). The class given is cell-based. The following applies: incorporation of [^3H]3-OMG into TM-BBB cell lines, uptake buffer 37°C, 20 seconds. The method, then:
(§1) Each of TM-BBB's was plated onto a 24-well cell culture plate at a density of 3×10^5 cells/well/mℓ medium and cultured in a CO2 incubator at 33°C for 24 hours to make the cells confluent. The incorporation of 3-OMG was measured in the following manner. […] Ten seconds later, the uptake buffer was removed, and the cells were washed with the uptake buffer at 4°C. Subsequently, the uptake buffer was removed after 20 seconds, 30 seconds, 1 minute, or 10 minutes, and the cells were treated in the same manner. […] Twenty seconds later, the uptake buffer was removed, and the cells were washed with the uptake buffer at 4°C. Then, the cells were lyzed overnight with 1 mℓ PBS containing 1% Triton X-100 and then measured for radioactivity in a liquid scintillation counter. […] Pharmacobio-Dyn, 4: 879-885 (1981)] using a plot formula (V = Vmax x [S]/(Km + [S]); […]

Substrate in series [3]: CO[C@@H]([C@H](O)[C@H](O)CO)[C@@H](O)C=O
The series is described as above. The following applies: other: incorporation of [^3H]3-OMG into TM-BBB cell lines, uptake buffer 37°C, 20 seconds, 0.5-50 mM unlabelled 3-OMG, pH 7.4. The class given is cell-based, mouse. As for the experimental part:
as §1

With `N[C@@H](CC(=O)O)C(=O)O` [L-Asp, L-aspartic acid], in series [1], the “incorporation of [^3H]L-Glu, expressed in % relative to the control” value (from here on “incorporation … in % relative to the control”) is given as 57±2% and the “inhibition of incorporation of [^3H]L-Glu (in words)” value is “significantly inhibited”.

As to `N[C@H](CC(=O)O)C(=O)O` [D-Asp, D-aspartic acid], in series [1], the “incorporation … in % relative to the control” value worked out at 67±6% and the “inhibition of incorporation of [^3H]L-Glu (in words)” value is “significantly inhibited”.

As to `N[C@@H](CCC(=O)O)C(=O)O` [L-Glu, L-glutamic acid], the “incorporation … in % relative to the control” value in series [1] turned out to be 8.3±1.5%. Moreover, the “maximum incorporation rate constant (Vmax)” value in series [1] (incorporation of [^3H]L-Glu into TR-AST cell lines, 37°C) is given as 1.8 nmol/min/mg protein. The Km in series [1] (incorporation of [^3H]L-Glu into TR-AST cell lines, 37°C, read-out: Michaelis constant (Km)) was 96 µM.

For the molecule `CO[C@@H]([C@H](O)[C@H](O)CO)[C@@H](O)C=O` [3-OMG, 3-O-methyl-D-glucose], in series [2], the “maximum incorporation rate constant (Vmax)” value was determined as 44 nmol/min/mg protein.

B1: GLUT1 (Mus musculus) (protein)
chain: MDPSSKKVTGRLMLAVGGAVLGSLQFGYNTGVINAPQKVIEEFYNQTWNHRYGEPIPSTTLTTLWSLSVAIFSVGGMIGSFSVGLFVNRFGRRNSMLMMNLLAFVAAVLMGFSKLGKSFEMLILGRFIIGVYCGLTTGFVPMYVGEVSPTALRGALGTLHQLGIVVGILIAQVFGLDSIMGNADLWPLLLSVIFIPALLQCILLPFCPESPRFLLINRNEENRAKSVLKKLRGTADVTRDLQEMKEEGRQMMREKKVTILELFRSPAYRQPILIAVVLQLSQQLSGINAVFYYSTSIFEKAGVQQPVYATIGSGIVNTAFTVVSLFVVERAGRRTLHLIGLAGMAGCAVLMTIALALLERLPWMSYLSIVAIFGFVAFFEVGPGPIPWFIVAELFSQGPRPAAIAVAGFSNWTSNFIVGMCFQYVEQLCGPYVFIIFTVLLVLFFIFTYFKVPETKGRTFDEIASGFRQGGASQSDKTPEELFHPLGADSQV
notes: A band indicating the expression of GLUT-1 was confirmed in any of TM-BBB1, TM-BBB2, TM-BBB3, TM-BBB4 and TM-BBB5; endogenous in cells; host or cells: TM-BBB1 to TM-BBB5, conditionally immortalised mouse brain capillary endothelial cell lines (SV40tsA58 large T transgenic mice)
On to B1, for which the Km in series [3] was determined as 6600 µM.
